Reference: patent US9770026B2, “Substituted pyrimidine compound and uses thereof” (Shenyang Sinochem Agrochemicals R&D Co., Ltd., priority 2012, dated 2017)

Tests used:
[1] = test system: cucumber downy mildew; assay: protectant activity in vivo against cucumber downy mildew; conditions: for pest or weed control at 25 ppm: read-out: protectant activity against cucumber downy mildew in vivo, 25 ppm; for pest or weed control at 25 µg/mL: read-out: control effect against cucumber downy mildew (%), 25 mg/L; for pest or weed control at 25 µg/mL / pest or weed control at 50 µg/mL / pest or weed control at 100 µg/mL / pest or weed control at 400 µg/mL: protectant activity; for pest or weed control at 50 µg/mL: read-out: control effect against cucumber downy mildew (%), 50 mg/L; for pest or weed control at 100 µg/mL: read-out: control effect against cucumber downy mildew (%), 100 mg/L; for pest or weed control at 400 µg/mL: read-out: control effect against cucumber downy mildew (%), 400 mg/L
[2] = test system: carmine spider mite; assay: bioactivity test against carmine spider mite, airbrush spray; format: in vivo; conditions: for Insecticidal activity against carmine spider mite (% ) / pest or weed control at 10 µg/mL / pest or weed control at 100 µg/mL / pest or weed control at 600 µg/mL: contrastive test; for pest or weed control at 10 µg/mL / pest or weed control at 100 µg/mL / pest or weed control at 600 µg/mL: read-out: Insecticidal activity against carmine spider mite (% )
Method in brief: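 Broadbean seedlings infested with adult mites were sprayed with compound (acetone/methanol stock diluted in 0.1% Tween 80 water) by airbrush at 0.7 kg/cm^2, 0.5 ml. Three replicates were run. Mortality was scored after 72 hrs.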

[3] = test system: corn rust; assay: protectant activity in vivo against corn rust
[4] = test system: Green peach aphids (Myzus Persicae Sulzer); assay: bioactivity test against green peach aphid, airbrush foliar spray; format: in vivo
Method in brief: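 Death rate was scored at 48 hrs, held at 25±1 C and 60±5% RH, following airbrush foliar spray (0.5 mL, 10 psi) onto cabbage leaf discs bearing about 15-30 aphids. Test solutions: compound dissolved in 1:1 acetone:methanol, brought to concentration with 0.1% tween 80 water.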

[5] = test system: armyworm; assay: bioactivity test against armyworm, airbrush spray; format: in vivo; conditions: for pest or weed control at 600 µg/mL: 600 mg/L
[6] = test system: wheat powdery mildew; assay: protectant activity in vivo against wheat powdery mildew; conditions: for pest or weed control at 6.25 µg/mL: read-out: control effect against wheat powdery mildew (%), 6.25 mg/L; for pest or weed control at 25 µg/mL: read-out: control effect against wheat powdery mildew (%), 25 mg/L; for pest or weed control at 100 µg/mL: read-out: control effect against wheat powdery mildew (%), 100 mg/L; for pest or weed control at 400 µg/mL: read-out: control effect against wheat powdery mildew (%), 400 mg/L; for pest or weed control at 25 ppm: read-out: protectant activity against wheat powdery mildew in vivo, 25 ppm
[7] = test system: Diamond back moth; assay: insecticidal activity against diamond back moth, airbrush spray; format: in vivo
Method in brief: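 Airbrush leaf-disc spray test: both faces of 2 cm cabbage discs received 0.5 ml of test solution at 0.7 kg/cm^2. Solutions were made in acetone:methanol (1:1) and brought to concentration with 0.1% Tween 80 in water. Ten second-instar larvae per disc, triplicates, were held at 25° C and 60˜70% R.H., with mortality recorded at 72 hrs.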

[8] = 100 ppm, mortality after 72 hrs
[9] = 600 ppm, mortality after 72 hrs
[10] = Triticum aestivum, 168 h, protectant activity
[11] = Tetranychus cinnabarinus, 72 h, 10 mg/L
[12] = Tetranychus cinnabarinus, 72 h, 100 mg/L
[13] = Tetranychus cinnabarinus, 72 h, 600 mg/L
[14] = Myzus persicae, foliar, 48 h, 600 mg/L, contrastive test, read-out: Insecticidal activity against peach aphid (%)
[15] = 72 h, read-out: Insecticidal activity against armyworm (%)

CCc1ncnc(NCCc2ccc(Oc3ccc(C(F)(F)F)cn3)cc2)c1Cl [Compound I-6765]
protectant activity against cucumber downy mildew in vivo ([1]; 50 ppm): 100% | protectant activity against cucumber downy mildew in vivo ([1]; 100 ppm): 100% | protectant activity against cucumber downy mildew in vivo ([1]; 400 ppm): 100% | pest or weed control at 6.25 ppm ([1]; Cucumis sativus, 168 h, read-out: protectant activity against cucumber downy mildew in vivo, 6.25 ppm): 80 to 99% | pest or weed control at 12.5 ppm ([1]; Cucumis sativus, 168 h, read-out: protectant activity against cucumber downy mildew in vivo, 12.5 ppm): 80 to 99% | pest or weed control at 25 ppm ([1]; Cucumis sativus, 168 h): 100% | Insecticidal activity against carmine spider mite (% ) ([2]; 10 mg/L): 100% | Insecticidal activity against carmine spider mite (% ) ([2]; 100 mg/L): 100% | Insecticidal activity against carmine spider mite (% ) ([2]; 600 mg/L): 100% | control against carmine spider mite ([2]; 10 ppm, mortality after 72 hrs): 100% | control against carmine spider mite [2, 8]: 100% | control against carmine spider mite [2, 9]: 100% | protectant activity against corn rust in vivo ([3]; 100 ppm): 100% | protectant activity against corn rust in vivo ([3]; 400 ppm): 100% | Insecticidal activity against peach aphid (%) ([4]; 1.25 mg/L, contrastive test): 84% | Insecticidal activity against peach aphid (%) ([4]; 2.5 mg/L, contrastive test): 100% | Insecticidal activity against peach aphid (%) ([4]; 5 mg/L, contrastive test): 100% | Insecticidal activity against peach aphid (%) ([4]; 10 mg/L, contrastive test): 100% | Insecticidal activity against peach aphid (%) ([4]; 100 mg/L, contrastive test): 100% | Insecticidal activity against peach aphid (%) ([4]; 600 mg/L, contrastive test): 100% | control (test results against green peach aphid) ([4]; 2.5 ppm, death rate after 48 hrs): 100% | control (test results against green peach aphid) ([4]; 5 ppm, death rate after 48 hrs): 100% | control (test results against green peach aphid) ([4]; 10 ppm, death rate after 48 hrs): 100% | control (test results against green peach aphid) ([4]; 100 ppm, death rate after 48 hrs): 100% | control (test results against green peach aphid) ([4]; 600 ppm, death rate after 48 hrs): 100% | control (test results against armyworm) ([5]; 600 ppm, mortality after 72 h): 100% | pest or weed control at 100 ppm ([5]; 72 h, mortality after 72 h): 100% | protectant activity against wheat powdery mildew in vivo ([6]; 6.25 ppm): 100% | protectant activity against wheat powdery mildew in vivo ([6]; 100 ppm): 100% | protectant activity against wheat powdery mildew in vivo ([6]; 400 ppm): 100% | pest or weed control at 6.25 µg/mL [6, 10]: 100% | pest or weed control at 25 µg/mL [6, 10]: 100% | pest or weed control at 100 µg/mL [6, 10]: 100% | pest or weed control at 400 µg/mL [6, 10]: 100% | pest or weed control at 25 ppm ([6]; Triticum aestivum, 168 h): 100% | control (test results against diamond back moth) [7, 8]: 100% | control (test results against diamond back moth) [7, 9]: 100%

Cc1ncnc(NC(C)c2ccc(Oc3ncc(C(F)(F)F)cc3Cl)cc2)c1Cl (stereo not drawn) [CK27, reference compound]
pest or weed control at 25 µg/mL ([1]; Cucumis sativus, 168 h): 0% | pest or weed control at 50 µg/mL ([1]; Cucumis sativus, 168 h): 0% | pest or weed control at 100 µg/mL ([1]; Cucumis sativus, 168 h): 0% | pest or weed control at 400 µg/mL ([1]; Cucumis sativus, 168 h): 100% | pest or weed control at 10 µg/mL [2, 11]: 18% | pest or weed control at 100 µg/mL [2, 12]: 100% | pest or weed control at 600 µg/mL [2, 13]: 100% | pest or weed control at 6.25 µg/mL ([3]; Zea mays, 168 h, read-out: control effect against corn rust (%), 6.25 mg/L, protectant activity): 30% | pest or weed control at 25 µg/mL ([3]; Zea mays, 168 h, read-out: control effect against corn rust (%), 25 mg/L, protectant activity): 90% | pest or weed control at 100 µg/mL ([3]; Zea mays, 168 h, read-out: control effect against corn rust (%), 100 mg/L, protectant activity): 100% | pest or weed control at 400 µg/mL ([3]; Zea mays, 168 h, read-out: control effect against corn rust (%), 400 mg/L, protectant activity): 100% | pest or weed control at 600 µg/mL [4, 14]: 0% | pest or weed control at 600 µg/mL [5, 15]: 29% | pest or weed control at 400 µg/mL [6, 10]: 80% | pest or weed control at 600 µg/mL ([7]; 72 h, 600 mg/L): 0%

CCc1ncnc(NCCc2ccc(Oc3ccc(Cl)cc3)cc2)c1Cl [II-297]
pest or weed control at 25 µg/mL ([1]; Cucumis sativus, 168 h): 100% | pest or weed control at 50 µg/mL ([1]; Cucumis sativus, 168 h): 100% | pest or weed control at 100 µg/mL ([1]; Cucumis sativus, 168 h): 100% | pest or weed control at 400 µg/mL ([1]; Cucumis sativus, 168 h): 100% | pest or weed control at 25 ppm ([1]; Cucumis sativus, 168 h): 100% | pest or weed control at 50 ppm ([1]; Cucumis sativus, 168 h, read-out: protectant activity against cucumber downy mildew in vivo, 50 ppm): 100% | pest or weed control at 100 ppm ([1]; Cucumis sativus, 168 h, read-out: protectant activity against cucumber downy mildew in vivo, 100 ppm): 100% | pest or weed control at 400 ppm ([1]; Cucumis sativus, 168 h, read-out: protectant activity against cucumber downy mildew in vivo, 400 ppm): 100% | pest or weed control at 10 µg/mL [2, 11]: 74% | pest or weed control at 100 µg/mL [2, 12]: 100% | pest or weed control at 600 µg/mL [2, 13]: 100% | pest or weed control at 100 ppm ([2]; Tetranychus cinnabarinus, 72 h, 100 ppm, mortality after 72 hrs): 100% | pest or weed control at 600 ppm ([2]; Tetranychus cinnabarinus, 72 h, 600 ppm, mortality after 72 hrs): 100% | pest or weed control at 6.25 ppm ([3]; Zea mays, 168 h, read-out: protectant activity against corn rust in vivo, 6.25 ppm): 80 to 99% | pest or weed control at 25 ppm ([3]; Zea mays, 168 h, read-out: protectant activity against corn rust in vivo, 25 ppm): 80 to 99% | pest or weed control at 100 ppm ([3]; Zea mays, 168 h, read-out: protectant activity against corn rust in vivo, 100 ppm): 100% | pest or weed control at 400 ppm ([3]; Zea mays, 168 h, read-out: protectant activity against corn rust in vivo, 400 ppm): 100% | pest or weed control at 1.25 µg/mL ([4]; Myzus persicae, foliar, 48 h, 1.25 mg/L, contrastive test, read-out: Insecticidal activity against peach aphid (%)): 93% | pest or weed control at 2.5 µg/mL ([4]; Myzus persicae, foliar, 48 h, 2.5 mg/L, contrastive test, read-out: Insecticidal activity against peach aphid (%)): 100% | pest or weed control at 5 µg/mL ([4]; Myzus persicae, foliar, 48 h, 5 mg/L, contrastive test, read-out: Insecticidal activity against peach aphid (%)): 100% | pest or weed control at 10 µg/mL ([4]; Myzus persicae, foliar, 48 h, 10 mg/L, contrastive test, read-out: Insecticidal activity against peach aphid (%)): 100% | pest or weed control at 100 µg/mL ([4]; Myzus persicae, foliar, 48 h, 100 mg/L, contrastive test, read-out: Insecticidal activity against peach aphid (%)): 100% | pest or weed control at 600 µg/mL [4, 14]: 100% | pest or weed control at 2.5 ppm ([4]; Myzus persicae, foliar, 48 h, 2.5 ppm, death rate after 48 hrs): 100% | pest or weed control at 5 ppm ([4]; Myzus persicae, foliar, 48 h, 5 ppm, death rate after 48 hrs): 100% | pest or weed control at 10 ppm ([4]; Myzus persicae, foliar, 48 h, 10 ppm, death rate after 48 hrs): 100% | pest or weed control at 100 ppm ([4]; Myzus persicae, foliar, 48 h, 100 ppm, death rate after 48 hrs): 100% | pest or weed control at 600 ppm ([4]; Myzus persicae, foliar, 48 h, 600 ppm, death rate after 48 hrs): 100% | pest or weed control at 10 µg/mL ([5]; 72 h, 10 mg/L, read-out: Insecticidal activity against armyworm (%)): 30% | pest or weed control at 100 µg/mL ([5]; 72 h, 100 mg/L, read-out: Insecticidal activity against armyworm (%)): 95% | pest or weed control at 600 µg/mL [5, 15]: 100% | pest or weed control at 100 ppm ([5]; 72 h, mortality after 72 h): 80 to 99% | pest or weed control at 600 ppm ([5]; 72 h, 600 ppm, mortality after 72 h): 100% | pest or weed control at 0.4 µg/mL ([6]; Triticum aestivum, 168 h, read-out: control effect against wheat powdery mildew (%), 0.4 mg/L, protectant activity): 30% | pest or weed control at 1.6 µg/mL ([6]; Triticum aestivum, 168 h, read-out: control effect against wheat powdery mildew (%), 1.6 mg/L, protectant activity): 40% | pest or weed control at 6.25 µg/mL [6, 10]: 90% | pest or weed control at 25 µg/mL [6, 10]: 100% | pest or weed control at 100 µg/mL [6, 10]: 100% | pest or weed control at 400 µg/mL [6, 10]: 100% | pest or weed control at 6.25 ppm ([6]; Triticum aestivum, 168 h, read-out: protectant activity against wheat powdery mildew in vivo, 6.25 ppm): 80 to 99% | pest or weed control at 25 ppm ([6]; Triticum aestivum, 168 h): 100% | pest or weed control at 100 ppm ([6]; Triticum aestivum, 168 h, read-out: protectant activity against wheat powdery mildew in vivo, 100 ppm): 100% | pest or weed control at 400 ppm ([6]; Triticum aestivum, 168 h, read-out: protectant activity against wheat powdery mildew in vivo, 400 ppm): 100% | pest or weed control at 600 ppm ([7]; 72 h, 600 ppm, mortality after 72 hrs, read-out: control (test results against diamond back moth)): 100%
